Values quoted from earlier work, collected in US20030157104A1, “Treatment of refractory human tumors with epidermal growth factor receptor antagonists” (priority 1999, published 2003).

Tested on: FGFR
Conditions: Panek et al.

CCN(CC)CCOc1ccc(Nc2ncc3cc(-c4c(Cl)cccc4Cl)c(=O)n(C)c3n2)cc1 [PD166285, 6-(2,6-dichlorophenyl)-2-(4-(2-diethylaminoethoxy)phenylamino)-8-methyl-8H-pyrido(2,3-d)pyrimidin-7-one]
inhibition of FGFR family of receptors: inhibits
